Legend:
[1] = test system: β-galactosidase expression (lacZ promoter); assay: Induction of β-galactosidase expression in E. coli (ONPG assay, OD420nm); type: cell-based, Escherichia coli; conditions: for effectiveness as inducer compared with IBCG / effectiveness as inducer compared with IPTG: during 3 h following the substrate addition; for induction of β-galactosidase expression/transcription: inducer 0.5 mM, until 3 hours after addition of ONPG substrate; for efficacy of induction overtime: up to 8 h following substrate addition
Description: (§1) The bacteria strain E. coli XL1—Blue MRF′ Electroporation-competent cells (Stratagene #200158) containing pGEM-T vector was grown in LB medium adding with appropriate antibiotic (ampicillin). The starter culture was grown by inoculating plasmid containing cells in LB medium added with ampicillin and incubated overnight at 37° C. with shaking at 250 rpm. When culture reached the desired OD, the induction was started.
For each assay the starter culture was appropriately diluted (OD600=0.2) in 1.5 mL of LB medium with 3 μg/mL of ampicillin
β-galactosidase expression is then induced by addition of either IPTG (Sigma I1284), IBCG or Compounds T-16 and T-18 to final concentrations of 0.5 or 1 mM. After this induction the cultures are incubated for 3 hours at 37° C. with shaking at 250 rpm.
The β-galactosidase activity was assayed by adding 0.5 mg/mL of the ortho 2-nitrophenyl-β-D-galactopyranoside (ONPG Sigma N1127) as chromogenic substrate. ONPG is hydrolyzed by β-galactosidase to yield galactose and ortho-Nitrophenol, which is yellow in color and absorbs light at 420 nm. The intensity of the color can be used to determine the β-galactosidase activity.
Absorbance was measured (OD420nm) every hour during 8 hours after the substrate addition. The absorbance was plotted as a function of time representing the induction kinetic of β-galactosidase activity for each inducer and each concentration tested. Assays were performed as triplicate.

[2] = Stability of compounds in D2O solution at room temperature, followed by 19F NMR and 1H NMR; type: physicochemical
Description: Compounds T-16 and T-18 were dissolved in D2O and the resulting solutions were kept at room temperature. The stability of the compound was studied by ^19F NMR and ^1H NMR.

E. coli culture = assay: Toxicity to bacteria (absorbance of bacteria culture, OD600nm); type: cell-based, Escherichia coli; conditions: 0.5 mM; for toxicity throughout the assay: 8 hours, versus negative control without inducer
Description: as §1
The absorbance of the bacteria culture was measured (OD600nm) every hour during 8 hours after the substrate addition. The absorbance was plotted as a function of time representing the toxicity for each inducer. The negative control (no toxicity) consists on an assay without inducer. Assays were performed as triplicate.

[3] = test system: expression of Green Fluorescent Protein UV (GFPuv) in BLR(DE3) E. coli; assay: Recombinant GFPuv protein production, total and soluble fractions (SDS-PAGE densitometry); type: cell-based, Escherichia coli; conditions: inducer 0.1 mM, 0.05 mM and 0.01 mM
Description: Properties: MW: 27 763 Da. Theoretical pI: 6.13—Theoretical Absorption coefficient: 0.788—Number of Cys: 2 Construction of One Expression Strain: • Construct GFPUV-pET30b/3 was transformed into BLR(DE3) E. coli expression strain. • Cultures were performed from one single colony in a semi-defined Riesenberg medium in order to produce a Research Cell Bank (20 tubes of 1 mL stored at <−70° C.). Pre-cultures and Cultures Conditions: • Pre-cultures and cultures were performed in semi-defined Riesenberg medium, 50 mL and 250 mL flasks-scale, respectively. […] Analysis by SDS-PAGE Stained by Coomassie Blue • Sample: 10 μl deposit of suspension at equivalent OD600nm=8. • The proteins were separated by SDS-PAGE 4-12%, and then colored by Coomassie blue. • Quantitative measurement by densitometry and comparison with standard range of proteins.
Quantity of proteins (μg) was plotted as a function of time representing the kinetic of induction of GFPuv expression for each inducer and/or concentration tested.
The induction profile of GFPuv was evaluated for both IPTG and T-18 inducers at different concentrations. […]

Row | SMILES | effectiveness as inducer compared with IBCG ([1]; 0.5 mM) | effectiveness as inducer compared with IPTG ([1]; 0.5 mM) | induction of β-galactosidase expression/transcription [1] | degradation in solution (stability by 19F NMR and 1H NMR) ([2]; 10 weeks follow up) | toxicity throughout the assay (E. coli culture) | final quantity of GFPuv produced (total fraction) compared with IPTG [3] | effectiveness relative to IPTG ([1]; 0.5 mM, 8 h following substrate addition) | efficacy of induction overtime ([1]; 0.5 mM) | degradation in solution (stability by 19F NMR and 1H NMR) ([2]; 24 weeks follow up) | toxicity compared with IPTG (E. coli culture; after 3 h up to 8 h following the substrate addition) | toxicity compared with IPTG (E. coli culture; until 3 h following the substrate addition)
1 | CC(C)(O)C(F)(F)[C@@H]1O[C@H](CO)[C@H](O)[C@H](O)[C@H]1O [Compound T-16] | more effective inducers than IBCG | as effective inducers than IPTG | efficient inducers | without any degradation | medium toxicity |  |  |  |  |  | 
2 | CC(C)C(F)(F)[C@@H]1O[C@H](CO)[C@H](O)[C@H](O)[C@H]1O [Compound T-18] | more effective inducers than IBCG | as effective inducers than IPTG | efficient inducers |  |  | higher than with IPTG | at least 3 times | remains effective overtime | without any degradation | less toxic than IPTG | as toxic as IPTG
3 | CC(C)S[C@@H]1O[C@H](CO)[C@H](O)[C@H](O)[C@H]1O [IPTG, isopropyl-β-D -thiogalactopyranoside, reference compound] |  |  |  |  | medium toxicity |  |  | efficacy decrease |  |  | 
